Measurements reported in patent US20050159345A1 (Boehringer Ingelheim International GmbH, priority 2002, published 2005).

Tests used:
[1] = target: T1, HCV 3a NS3-NS4A heterodimer protein (UniProt Q81258); assay: In vitro HCV NS3 protease assay (fluorogenic depsipeptide), genotype 3a; assay type: biochemical, HCV genotype 3a; settings: read-out: IC50 HCV-3a; HCV 3a NS3-NS4A protease
T1 construct: fused on or other part: 28 extra N-terminal residues with a hexahistidine tag and an rTEV cleavage site
T1 sequence (Q81258 1033-1663): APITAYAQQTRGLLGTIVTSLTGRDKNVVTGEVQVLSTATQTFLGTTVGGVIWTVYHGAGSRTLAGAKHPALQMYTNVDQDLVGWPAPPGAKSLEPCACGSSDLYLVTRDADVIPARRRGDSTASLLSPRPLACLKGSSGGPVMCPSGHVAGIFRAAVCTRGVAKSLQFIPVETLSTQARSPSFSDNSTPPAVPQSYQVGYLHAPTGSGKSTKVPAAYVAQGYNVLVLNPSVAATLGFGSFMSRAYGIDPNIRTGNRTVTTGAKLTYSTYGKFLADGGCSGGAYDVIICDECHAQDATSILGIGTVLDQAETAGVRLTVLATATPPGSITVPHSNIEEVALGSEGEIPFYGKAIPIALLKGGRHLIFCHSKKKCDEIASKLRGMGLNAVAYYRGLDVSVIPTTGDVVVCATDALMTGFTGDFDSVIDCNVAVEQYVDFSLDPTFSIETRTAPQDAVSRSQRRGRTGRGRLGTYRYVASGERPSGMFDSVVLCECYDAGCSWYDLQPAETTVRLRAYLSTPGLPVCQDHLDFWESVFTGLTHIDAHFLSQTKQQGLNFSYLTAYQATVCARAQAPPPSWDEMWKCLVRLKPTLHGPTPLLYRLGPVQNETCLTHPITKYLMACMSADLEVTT
From the text: (§1) The NS3-NS4 protease genes of HCV genotypes 2b and 3a were amplified from RNA isolated from clinical samples of HCV-infected patients obtained from Dr. G. Steinmann (Germany) using RT-PCR. The primers used for the RT-PCR were 5′[…]3′ (SEQ ID No. 6) as the forward and 5′[…]3′ (SEQ ID No.7) as the reverse primer for the NS3-NS4A of HCV genotype 2b and; 5′[…]3′ (SEQ ID No. 8) as the forward and 5′[…]3′ (SEQ ID No. 9) as the reverse primer for HCV genotype 3a. Each primer contained a unique restriction site for subcloning the fragment in the bacterial expression vector pET11a. The cloning into the vector generated a recombinant fusion protein containing an additional N-terminal 28 residues that comprised a hexahistidine tag and a rTEV protease cleavage site. The recombinant plasmids were used to transform the bacterial strain BL21 DE3 pLysS for protein expression and recombinant protein expression was induced by the addition of IPTG. Following expression, the cells were collected by centrifugation at 4° C. and the cell pellet lysed in a buffer containing 50 mM sodium phosphate, 0.5M NaCl, 40% glycerol, 1.5% NP-40, 0.5% Triton X-100 and the soluble protein fraction was passed through a 5ml HiTrap chelating affinity column as described above. A poly(U)-Sepharose purification step can optionally be conducted in order to remove degradation products and contaminants. […]
(§2) The fluorescence was monitored using the BMG POLARstar Galaxy 96-well plate reader with an excitation filter of 320 nm, and an emission filter of 405 nm. The level of inhibition (% inhibition) of each well containing test compound was calculated with the following equation (FU=fluorescence unit): [formula]
(§3) The calculated % inhibition values were then used to determine IC50, slope factor (n) and maximum inhibition (Imax) by the non-linear regression routine NLIN procedure of SAS using the following equation: [formula] […]

[2] = target: T2, HCV 2b NS3-NS4A heterodimer protein (UniProt P26661); assay: In vitro HCV NS3 protease assay (fluorogenic depsipeptide), genotype 2b; assay type: biochemical, HCV genotype 2b; settings: read-out: IC50 HCV-2b; HCV 2b NS3-NS4A protease
T2 construct: fused on or other part: 28 extra N-terminal residues with a hexahistidine tag and an rTEV cleavage site
T2 sequence (P26661 1031-1661): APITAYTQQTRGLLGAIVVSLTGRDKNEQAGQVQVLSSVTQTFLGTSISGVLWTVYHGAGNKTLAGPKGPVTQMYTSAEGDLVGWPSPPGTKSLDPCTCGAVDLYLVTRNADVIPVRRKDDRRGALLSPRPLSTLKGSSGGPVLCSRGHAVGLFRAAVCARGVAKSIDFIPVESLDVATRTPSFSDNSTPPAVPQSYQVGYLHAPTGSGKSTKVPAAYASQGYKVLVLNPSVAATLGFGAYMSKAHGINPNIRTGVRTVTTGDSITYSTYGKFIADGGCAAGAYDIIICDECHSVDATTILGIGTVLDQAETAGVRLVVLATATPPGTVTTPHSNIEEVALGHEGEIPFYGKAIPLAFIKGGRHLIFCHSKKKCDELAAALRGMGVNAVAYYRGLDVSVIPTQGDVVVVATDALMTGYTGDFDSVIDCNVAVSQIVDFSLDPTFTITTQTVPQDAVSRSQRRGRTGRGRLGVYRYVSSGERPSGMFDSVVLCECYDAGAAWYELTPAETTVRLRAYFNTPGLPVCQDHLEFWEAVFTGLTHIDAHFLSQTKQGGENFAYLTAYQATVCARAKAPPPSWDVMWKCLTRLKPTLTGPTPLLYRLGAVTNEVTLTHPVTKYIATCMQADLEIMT
From the text: as §1, §2, §3

SMILES | IC50 [1] [nM] | IC50 [2] [nM]
COc1ccc2c(O[C@@H]3C[C@H]4C(=O)N[C@]5(C(=O)O)CC5/C=C\CCCCC[C@H](NC(=O)OC(C)(C)C)C(=O)N4C3)cc(-c3ccccc3)nc2c1 (stereo partly drawn) [II] | 360 | 1000
COc1ccc2c(O[C@@H]3C[C@H]4C(=O)N[C@]5(C(=O)O)CC5/C=C\CCCCC[C@H](NC(=O)OC5CCCC5)C(=O)N4C3)cc(-c3csc(NC(C)C)n3)nc2c1 (stereo partly drawn) [IV] | 280 | 260
COc1ccc2c(O[C@@H]3C[C@H]4C(=O)N[C@]5(C(=O)O)CC5/C=C\CCCCC[C@H](NC(=O)OC(C)(C)C)C(=O)N4C3)cc(-c3csc(NC(C)=O)n3)nc2c1 (stereo partly drawn) [III] | 190 | 510
